# Literature values, collected in patent US20210400979A1, “ANTI-VIRAL FACE MASK AND FILTER MATERIALS” (priority 2020, published 2021).
# How the values were obtained:
# [1] = system: RTCs of SARS-CoV (RNA-synthesizing activity); conditions: RTCs isolated from SARS-CoV infected cells, various Zn^2+ concentrations (FIG. 13A)
Molecule,water solubility (in words),RNA-synthesizing activity of the RTCs of the virus [1]
zinc picolinate,moderately water soluble,–
[Zn+2] [Zn^2+],–,efficiently inhibits
